{
  "source": "patent US9624269B2",
  "about": "“Peptide inhibitors of BACE1” (GENENTECH, INC., priority 2011, dated 2017)",
  "key": {"[1]": {"biological_target": "rhBACE2 (Homo sapiens, UniProt Q9Y5Z0)", "sequence (Q9Y5Z0 63-518)": "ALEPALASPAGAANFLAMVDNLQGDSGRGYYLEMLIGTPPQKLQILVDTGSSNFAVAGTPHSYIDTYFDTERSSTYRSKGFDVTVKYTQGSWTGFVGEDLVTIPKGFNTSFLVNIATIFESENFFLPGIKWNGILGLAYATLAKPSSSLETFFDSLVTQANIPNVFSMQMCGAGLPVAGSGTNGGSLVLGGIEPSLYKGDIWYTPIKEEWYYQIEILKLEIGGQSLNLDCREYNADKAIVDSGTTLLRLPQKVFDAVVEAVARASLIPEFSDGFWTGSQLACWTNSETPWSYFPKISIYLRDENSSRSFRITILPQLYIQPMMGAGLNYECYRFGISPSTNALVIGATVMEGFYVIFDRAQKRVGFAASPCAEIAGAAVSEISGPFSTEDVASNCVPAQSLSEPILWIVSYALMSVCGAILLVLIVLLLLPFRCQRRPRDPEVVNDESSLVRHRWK", "assay": "BACE2 activity assay (microfluidic capillary electrophoresis)", "format": "biochemical", "conditions": "5 nM rhBACE2", "procedure": "(§1) BACE1, BACE2 and Cathepsin D Activity Assay Using Microfluidic Capillary Electrophoresis (MCE).\n(§2) BACE1, BACE2, and Cathepsin D reactions were carried out in a final volume of 20 μl per well in a 384-well microplate using a Caliper LabChip 3000 (Hopkinton, Mass.). A standard enzymatic reaction, initiated by the addition of 10 μ12× substrate to 5 μl of 4× enzyme and 5 μl of 4× peptide or small molecule inhibitor, contained 12 nM rhBACE1, 1 μM FAM-[…]-amide (SEQ ID NO: 20), 50 mM NaOAc, pH 4.4, 0.1% CHAPS. The same reaction conditions were used for rhBACE2 (5 nM) and Cathepsin D (6 nM) (Cat. No. 219394; EMD Biosciences, San Diego, Calif.). After incubation for 60 min at room temperature, the product and substrate in each reaction were separated using a 12-sipper microfluidic chip. Separation of product and substrate was optimized by choosing voltages and pressure using the Caliper Optimizer software. The separation buffer contained 100 mM HEPES, pH 7.2, 0.015% Brij-35, 0.1% Coating Reagent #3, 10 mM EDTA and 5% DMSO. The separation conditions used a downstream voltage of −500 V, an upstream voltage of −2250 V, and a screening pressure of −1.2 psi. The product and substrate fluorescence was excited at 488 nm and detected at 530 nm. Substrate conversion was calculated from the electrophoregram using the Caliper HTS Well Analyzer software."}, "[2]": {"biological_target": "T1, Cathepsin D (Homo sapiens, UniProt P07339)", "T1 construct": "purchased EMD Biosciences, San Diego, Calif; 219394", "T1 sequence (P07339 65-412, species assumed)": "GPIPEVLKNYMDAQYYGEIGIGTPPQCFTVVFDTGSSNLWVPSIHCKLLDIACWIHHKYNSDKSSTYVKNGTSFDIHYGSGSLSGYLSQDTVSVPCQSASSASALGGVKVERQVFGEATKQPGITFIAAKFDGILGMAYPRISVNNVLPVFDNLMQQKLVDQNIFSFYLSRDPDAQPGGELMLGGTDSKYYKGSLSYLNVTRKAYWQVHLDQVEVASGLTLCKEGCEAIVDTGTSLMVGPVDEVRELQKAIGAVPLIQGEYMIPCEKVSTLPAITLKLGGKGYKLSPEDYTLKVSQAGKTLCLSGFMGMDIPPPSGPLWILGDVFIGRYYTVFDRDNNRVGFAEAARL", "assay": "Cathepsin D activity assay (microfluidic capillary electrophoresis)", "format": "biochemical", "conditions": "6 nM Cathepsin D", "procedure": "as §1, §2"}, "[3]": {"tested_on": "Aβ1-40 production in 293-hAPP cells", "assay": "Aβ1-40 assay in 293-hAPP cells", "format": "cell-based, human", "conditions": "293-HEK cells stably transfected with APP, 24 h", "procedure": "Aβ1-40 Assay in 293-hAPP Cells.\nAβ1-40 production was measured in 293-HEK cells stably expressing wild-type human APP(695) complementary DNA (cDNA) (293-hAPP). Cells were seeded overnight at 3×10^4 cells per well in a 96-well plate. Fresh media [Dulbecco's modified Eagle's medium (DMEM)+10% fetal bovine serum (FBS)] containing various inhibitors were incubated with the 293-hAPP cells for 24 h. The cellular medium was harvested and assayed for the presence of Aβ1-40 with an Aβ1-40 HTRF assay (CisBio) according to the manufacturer's instructions. Aβ1-40 values were normalized for cell viability, as determined with the CellTiter-Glo Luminescent Cell Viability Assay (Promega). Experiments were performed at least 3 times, and each point in each experiment was repeated in duplicate. Data was plotted with a 4-parameter nonlinear regression curve-fitting program (KaleidaGraph, Synergy Software)."}, "[4]": {"biological_target": "human BACE1 (rhBACE1) (Homo sapiens, UniProt P56817)", "sequence (P56817 46-457 limits assumed)": "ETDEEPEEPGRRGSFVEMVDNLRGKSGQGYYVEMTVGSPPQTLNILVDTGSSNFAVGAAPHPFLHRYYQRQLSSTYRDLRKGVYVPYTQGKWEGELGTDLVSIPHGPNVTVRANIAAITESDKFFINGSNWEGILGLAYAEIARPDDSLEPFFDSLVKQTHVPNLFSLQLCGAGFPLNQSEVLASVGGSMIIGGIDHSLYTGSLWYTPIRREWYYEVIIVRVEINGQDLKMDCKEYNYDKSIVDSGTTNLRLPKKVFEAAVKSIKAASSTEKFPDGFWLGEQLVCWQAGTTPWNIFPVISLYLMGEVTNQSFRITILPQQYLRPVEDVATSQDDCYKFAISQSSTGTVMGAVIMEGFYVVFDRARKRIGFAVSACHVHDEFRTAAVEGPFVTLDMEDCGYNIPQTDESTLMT", "assay": "Caliper BACE1 activity assay (microfluidic capillary electrophoresis)", "format": "biochemical", "design": "containing human BACE1 (extracellular domain)", "procedure": "An MCE assay reactions can be carried out in a standard enzymatic reaction, initiated by the addition of substrate to enzyme and 4× compound, containing human BACE1 (extracellular domain), amyloid precursor protein beta secretase active site peptide (FAM-[…]-CONH2 (SEQ ID NO: 20)), 50 mM NaOAc pH 4.4 and 0.1% CHAPS. After incubation for 60 minutes at ambient temperature, the product and substrate in each reaction is separated using a 12-sipper microfluidic chip analyzed on an LC3000® (both, Caliper Life Sciences). The separation of product and substrate is optimized by choosing voltages and pressure using the manufacturer's optimization software. Substrate conversion is calculated from the electrophoregram using HTS Well Analyzer software (Caliper Life Sciences).\nas §1, §2"}},
  "note": "Positions of bridges follow the written chain, without caps; N, C: chain ends. Residues, ends and D or L forms follow the SMILES beside them.",
  "data": [
    {"molecule": "CC[C@H](C)[C@@H]1NC(=O)CNC(=O)[C@H](CC(C)C)NC(=O)[C@H](CC(C)C)NC(=O)[C@H](CCCNC(=N)N)NC(=O)[C@@H](NC(=O)[C@H](Cc2ccc(O)cc2)NC(=O)[C@H](CCSC)NC(=O)[C@H](CO)NC(=O)[C@H](CCC(=O)O)NC(C)=O)CSSC[C@@H](C(=O)NCC(N)=O)NC(=O)CNC1=O", "note": "[BACE030] (Ac-ESMYCRLLGIGCG-NH2; disulfide 5-12)", "values": [
      {"measurement": "Inhibition of BACE2", "setting": "[1]", "value": "no inhibition"},
      {"measurement": "Inhibition of Cathepsin D", "setting": "[2]", "value": "no inhibition"},
      {"measurement": "Inhibition of Aβ production in cells (in words)", "setting": "[3]", "value": "potent inhibition"},
      {"measurement": "IC50", "setting": "[4]; 12 nM rhBACE1, 1 μM FAM-substrate, pH 4.4", "value": "18 ± 7", "unit": "nM"},
      {"measurement": "peptide activity (in words)", "setting": "[4]; competition binding and enzymatic assays", "value": "full activity"}
    ]}
  ]
}
